Source: patent US20070219144A1, “IMMUNOMODULATORY SACCHARIDE COMPOUNDS” (University of Alberta, priority 2006, published 2007)
Entries after “also recorded” stand apart in the source; their conditions may differ.

What was measured:
Type in all cases: cell-based, human
TNF-α [1] = test: Inhibition of IFN-γ/SAC-induced TNF-α production in THP-1 cells after pre-incubation (ELISA); settings: for induction of TNF-α production in the IFN-γ/SAC assay / inhibition of TNF-α production induced by IFN-γ/SAC: 5 μM, FIG. 12; for inhibition of TNF-α response induced by IFN-γ/SAC: FIG. 11A; for inhibition of the cytokine response (TNF-α) induced by IFN-γ/SAC: general statement, no concentration given
IL-12p70 [2] = test: Inhibition of IFN-γ/SAC-induced IL-12p70 production in THP-1 cells after pre-incubation (ELISA); settings: for inhibition of IL-12p70 production induced by IFN-γ/SAC: 5 μM, FIG. 13; for inhibition of IL-12p70 response induced by IFN-γ/SAC: 10 or 100 μg/mL, FIG. 11B; for inhibition of the cytokine response (IL-12p70) induced by IFN-γ/SAC: general statement, no concentration given
TNF-α [3] = test: TNF-α induction in THP-1 cells by compound alone (ELISA); settings: 10 or 100 μg/mL
Protocol: (§1) Experiments were conducted to determine the role for the MTX residue. Given its location in the capping motif in LAM from M. tuberculosis, it was hypothesized that the residue may function as an immunomodulatory species. Thus, the ability of 3 and 34 to induce or inhibit the production of the TNF-α and IL-12p70 was evaluated using a human monocytic cell line (THP-1). THP-1 cells were re-suspended at a concentration of 5×10^6 cells/mL in RPMI 1640+10% FCS+1% GPS (200 mM penicillin/streptomycin (Sigma UK)+2 mM L-glutamine (Invitrogen)) and plated into a 48-well plate (500 μL/well). Cells were treated with either 3 or 34 (100 μg and 10 μg/mL) or AraLAM or ManLAM (10 μg/mL) for 24 hours and then stimulated for a further 8 hours with a combination of Staphylococcus aureus Cowan (SAC) (Pansorbin™, Calbiochem, UK) and human IFNγ (1000 U/mL, Preprotech). Following incubation, the supernatants were collected and stored in 200 μL aliquots (−80° C.) and analyzed by ELISA (R&D systems) for IL12p70 and TNF-α production.

IL-12p70 [4] = test: IL-12p70 induction in THP-1 cells by compound alone (ELISA); settings: 10 or 100 μg/mL
Protocol: as §1

Compound	induction of TNF-α production in the IFN-γ/SAC assay (TNF-α [1])	inhibition of TNF-α production induced by IFN-γ/SAC (TNF-α [1])	inhibition of IL-12p70 production induced by IFN-γ/SAC (IL-12p70 [2])	induction of TNF-α production (TNF-α [3])	induction of IL-12p70 production (IL-12p70 [4])	inhibition of TNF-α response induced by IFN-γ/SAC (TNF-α [1]; 100 μg/mL)	inhibition of the cytokine response (TNF-α) induced by IFN-γ/SAC (TNF-α [1])	inhibition of IL-12p70 response induced by IFN-γ/SAC (IL-12p70 [2])	inhibition of the cytokine response (IL-12p70) induced by IFN-γ/SAC (IL-12p70 [2])	inhibition of TNF-α response induced by IFN-γ/SAC (TNF-α [1]; 10 μg/mL)
CO[C@H]1O[C@H](CO)[C@H](O)[C@H]1O [Compound 35, methyl α-D-xylofuranoside, reference compound]	appeared to induce production of TNF-α to varying degrees	none of these compounds inhibited cytokine induction	inhibited induction, but to a degree intermediate between 3 and 34	–	–	–	–	–	–	–
CO[C@H]1O[C@H](CO)[C@@H](O)[C@H](O[C@H]2O[C@H](CSC)[C@H](O)[C@H]2O)[C@@H]1O [Compound 2, Methyl 3-O-(5-deoxy-5-methylthio-α-D-xylofuranosyl)-α-D-mannopyranoside]	appeared to induce production of TNF-α to varying degrees	none of these compounds inhibited cytokine induction	inhibited induction, but to a degree intermediate between 3 and 34	–	–	–	–	–	–	–
CO[C@H]1O[C@H](CO)[C@@H](O[C@@H]2O[C@@H](CSC)[C@@H](O)[C@@H]2O)[C@H](O)[C@@H]1O [Compound 6, Methyl 4-O-(5-deoxy-5-methylthio-α-L-xylofuranosyl)-α-D-mannopyranoside]	appeared to induce production of TNF-α to varying degrees	none of these compounds inhibited cytokine induction	inhibited induction, but to a degree intermediate between 3 and 34	–	–	–	–	–	–	–
CO[C@H]1O[C@H](CO)[C@@H](O[C@H]2O[C@H](CSC)[C@H](O)[C@H]2O)[C@H](O)[C@@H]1O [Compound 3, Methyl 4-O-(5-deoxy-5-methylthio-α-D-xylofuranosyl)-α-D-mannopyranoside]	–	inhibited TNF-α production to a similar degree as a 5 μM concentration of ManLAM	–	Neither 3 nor 34, when tested at concentrations of 10 or 100 μg/mL, significantly induced the production of these two cytokines; also recorded: did not lead to production	Neither 3 nor 34, when tested at concentrations of 10 or 100 μg/mL, significantly induced the production of these two cytokines; also recorded: did not lead to production	level of inhibition comparable with ManLAM at 10 μg/mL	modest levels of inhibition; also recorded: modest inhibitory properties	only a very modest effect	modest levels of inhibition; also recorded: modest inhibitory properties	–
CO[C@H]1O[C@H](CO)[C@@H](O)[C@H](O)[C@@H]1O[C@H]1O[C@H](CSC)[C@H](O)[C@H]1O [Compound 1, Methyl 2-O-(5-deoxy-5-methylthio-α-D-xylofuranosyl)-α-D-mannopyranoside]	appeared to induce production of TNF-α to varying degrees	none of these compounds inhibited cytokine induction	inhibited induction, but to a degree intermediate between 3 and 34	–	–	–	–	–	–	–
CO[C@H]1OC(CO)[C@@H](O[C@H]2O[C@H](C[S+](C)[O-])C(O)[C@@H]2O)[C@H](O)C1O (mixture of isomers) [Compound 34]	–	weaker inhibitor than 3	less active	Neither 3 nor 34, when tested at concentrations of 10 or 100 μg/mL, significantly induced the production of these two cytokines; also recorded: did not lead to production	Neither 3 nor 34, when tested at concentrations of 10 or 100 μg/mL, significantly induced the production of these two cytokines; also recorded: did not lead to production	–	modest levels of inhibition; also recorded: modest inhibitory properties	only a very modest effect	modest levels of inhibition; also recorded: modest inhibitory properties	less effective and comparable to AraLAM at 10 μg/mL
